Reference: US10195185B2, “3-(1H-imidazo[4,5-C]pyridin-2-yl)-1H-pyrazolo[4,3-B]pyridines and therapeutic uses thereof” (Samumed, LLC, priority 2015, dated 2019)

Assays:
Assay type in all cases: cell-based
[1] = tested on: Wnt activity (Wnt-responsive human Sp5 promoter, TCF/LEF binding sites) in SW480 colon carcinoma cells; assay: Wnt activity screening assay: Sp5-Luc luciferase reporter gene in SW480 cells; settings: for EC50: 10-point dose-response from 10 μM, incubated overnight; for inhibition at 10 µM: given for EC50 of >10 μM, read-out: percent inhibition at 10 μM
From the text: The screening assay for Wnt activity is described as follows. Reporter cell lines can be generated by stably transducing cancer cell lines (e.g., colon cancer) or primary cells (e.g., IEC-6 intestinal cells) with a lentiviral construct that includes a Wnt-responsive promoter driving expression of the firefly luciferase gene.
SW480 colon carcinoma cells were transduced with a lentiviral vector expressing luciferase with a human Sp5 promoter consisting of a sequence of eight TCF/LEF binding sites. SW480 cells stably expressing the Sp5-Luc reporter gene and a hygromycin resistance gene were selected by treatment with 150 μg/mL of hygromycin for 7 days. These stably transduced SW480 cells were expanded in cell culture and used for all further screening activities. Each compound was dissolved in DMSO as a 10 mM stock and used to prepare compound source plates. Serial dilution (1:3, 10-point dose-response curves starting from 10 μM) and compound transfer was performed using the ECHO 550 (Labcyte, Sunnyvale, Calif.) into 384-well white solid bottom assay plates (Greiner Bio-One) with appropriate DMSO backfill for a final DMSO concentration of 0.1%. For Sp5-Luc reporter gene assays, the cells were plated at 4,000 cells/well in 384-well plates with medium containing 1% fetal bovine serum and incubated overnight at 37° C. and 5% CO2. Following incubation, 20 μl of BrightGlo luminescence reagent (Promega) was added to each well of the 384-well assay plates. The plates were placed on an orbital shaker for 2 min and then luminescence was quantified using the Envision (Perkin Elmer) plate reader. Readings were normalized to DMSO only treated cells, and normalized activities were utilized for EC50 calculations using the dose-response log (inhibitor) vs. response-variable slope (four parameters) nonlinear regression feature available in GraphPad Prism 5.0 (or Dotmatics). For EC50 of >10 μM, the percent inhibition at 10 μM is provided.

SW480 colon cancer cells = assay: Cell viability assay (CellTiter-Blue), four days; settings: Homo sapiens, 96 h; for inhibition at 10 µM: read-out: percent inhibition at 10 μM (given for EC50 of >10 μM); for EC50: CellTiter-Blue cell viability
Experimental: Representative compounds were screened using the following assay procedure to assess the effect on cell viability as described below.
Each compound was dissolved in DMSO as a 10 mM stock and used to prepare compound source plates. Serial dilution (1:3, 8-point dose-response curves from 10 μM to 0.0045 μM) and compound transfer was performed using the ECHO 550 (Labcyte, Sunnyvale, Calif.) into 96-well clear bottom, black-walled plates (Corning-Costar).
Approximately 2×10^3 SW480 colon cancer cells were seeded into each well and allowed to incubate in the presence or absence of compound for four days at 37° C./5% CO2. Eight replicates of DMSO-treated cells served as controls and cells treated with compound were performed in duplicate.
After incubation, 20 μL of CellTiter-Blue (Promega) was added to each well allowed to incubate for approximately 3 hours. This reagent was a buffered solution which contains resazurin, metabolically active cells were able to reduce rezarurin (blue) into resorufin (pink) which was highly fluorescent. This measured fluorescence was used as a readout for cell viability.
After incubation, the plates were read at Ex 560 nm Em 590 nm (Cytation 3, BioTek). Dose-response curves were generated and EC50 concentration values were calculated using non-linear regression curve fit in the GraphPad Prism (San Diego, Calif.) or Dotmatics' Studies Software (Bishops Stortford, UK). For EC50 of >10 μM, the percent inhibition at 10 μM is provided.

[2] = tested on: IL-6 in human monocyte cell line (THP-1 cells); assay: IL-6 inhibition in LPS-stimulated THP-1 cells (HTRF); settings: IL-6 in LPS-stimulated THP-1 cells; for EC50: HTRF; for inhibition at 10 µM: read-out: percent inhibition in brackets beside EC50 >10 μM
Experimental: Human monocyte cell line (THP-1 cells; Catalog # TIB-202, ATCC, Manassas, Va.) were cultured in Roswell Park Memorial Institute (RPMI) 1640 Medium (Catalog #21870-100, Buffalo, N.Y.) with 1% L-glutamine, 1% HEPES, 1% Sodium Pyruvate, 2% Sodium Bicarbonate supplemented with 100 units/mL penicillin, 50 μg/mL streptomycin, 2-mercaptoethanol (0.05 mM) [basal medium] and 10% fetal bovine serum (Catalog #16140089, Life Technologies, Carlsbad, Calif.) at 37° C. and 5% CO2.
THP-1 cells were cultured in basal media with 1% FBS for 24 hours before the start of the assay. Each compound was dissolved in DMSO as a 10 mM stock and used to prepare compound source plates. Serial dilution (1:3, 10-point dose-response curves starting from 10 μM) and compound transfer was performed using the ECHO 550 (Labcyte, Sunnyvale, Calif.) into 384-well white low volume assay plates (Greiner Bio-One) with appropriate DMSO backfill for a final DMSO concentration of 0.1%. THP-1 cells were plated at 5000 cells/well in the 384-well plates and incubated at 37° C. for 2 h. 500 ng/mL of LPS was added after 2 hours and cells were incubated for another 22 hours at 37° C. Plates were spun in a centrifuge for 1 minute at […] and a mixture of anti-IL6 XL665, and anti-IL6 Cryptate diluted in reconstitution buffer (Cisbio Inc.) was added to each well. Following incubation for 3 hrs at room temperature, Homogeneous Time-Resolved Fluorescence (HTRF) was measured using the Envision (Perkin Elmer) at 665 nm and […]. The ratio of fluorescence at 665 nm to 620 nm was used as a readout for IL6 quantification. All samples were processed in duplicate. Readings were normalized to DMSO treated cells and normalized activities were utilized for EC50 calculations using the dose-response log (inhibitor) vs. response-variable slope (four parameters) nonlinear regression feature available in GraphPad Prism 5.0 (or Dotmatics). For EC50 of >10 μM, the percent inhibition at 10 μM is provided.

EC50 [1] | EC50 (SW480 colon cancer cells) | EC50 [2] | Structure (SMILES) | inhibition at 10 µM [1] | inhibition at 10 µM (SW480 colon cancer cells) | inhibition at 10 µM [2]
> 10 µM | > 10 µM | 1.24 µM | O=C(Cc1ccccc1)Nc1cncc(-c2ccc3[nH]nc(-c4nc5c(-c6ccncc6)nccc5[nH]4)c3n2)c1 [Compound 122, 2-phenyl-N-(5-(3-(4-(pyridin-4-yl)-1H-imidazo[4,5-c]pyridin-2-yl)-1H-pyrazolo[4,3-b]pyridin-5-yl)pyridin-3-yl)acetamide] | 1% | 3.2% | 
3.98 µM | 8.48 µM | > 10 µM | Cc1cn(-c2nccc3[nH]c(-c4n[nH]c5ccc(-c6cncc(NC(=O)CC(C)C)c6)nc45)nc23)cn1 [Compound 198] |  |  | 25.2%
0.719 µM | 1.16 µM | > 10 µM | CC(C)CC(=O)Nc1cncc(-c2ccc3[nH]nc(-c4nc5c(-c6ccc(Cl)s6)nccc5[nH]4)c3n2)c1 [Compound 1037, N-(5-(3-(4-(5-Chlorothiophen-2-yl)-1H-imidazo[4,5-c]pyridin-2-yl)-1H-pyrazolo [4,3-b]pyridin-5-yl)pyridin-3-yl)-3-methylbutanamide] |  |  | 18.1%
3.47 µM | 0.684 µM | > 10 µM | CCNCc1cncc(-c2ccc3[nH]nc(-c4nc5c(-c6ccoc6)nccc5[nH]4)c3n2)c1 [Compound 314, N-((5-(3-(4-(Furan-3-yl)-1H-imidazo[4,5-c]pyridin-2-yl)-1H-pyrazolo[4,3-b]pyridin-5-yl)pyridin-3-yl)methyl)ethanamine] |  |  | 36%
> 10 µM | > 10 µM | > 10 µM | Nc1cncc(-c2ccc3[nH]nc(-c4nc5c(-c6ccccc6F)nccc5[nH]4)c3n2)c1 [Compound 59, 5-(3-(4-(2-Fluorophenyl)-1H-imidazo[4,5-c]pyridin-2-yl)-1H-pyrazolo[4,3-b]pyridin-5-yl)pyridin-3-amine] | 27.7% | 0% | 30.6%
0.356 µM | 0.439 µM | 0.482 µM | CC(C)Nc1cncc(-c2ccc3[nH]nc(-c4nc5c(-c6ccoc6)nccc5[nH]4)c3n2)c1 [Compound 320, 5-(3-(4-(Furan-3-yl)-1H-imidazo[4,5-c]pyridin-2-yl)-1H-pyrazolo[4,3-b]pyridin-5-yl)-N-isopropylpyridin-3-amine] |  |  | 
> 10 µM | 4.69 µM | > 10 µM | CN(C)Cc1cncc(-c2ccc3[nH]nc(-c4nc5c(N6CCCCC6)nccc5[nH]4)c3n2)c1 [Compound 181, N,N-Dimethyl-1-(5-(3-(4-(piperidin-1-yl)-1H-imidazo[4,5-c]pyridin-2-yl)-1H-pyrazolo [4,3-b]pyridin-5-yl)pyridin-3-yl)methanamine] | 8.4% |  | 36.5%
3.35 µM | 3.59 µM | > 10 µM | CC(C)(C)C(=O)Nc1cncc(-c2ccc3[nH]nc(-c4nc5c(-c6ccc(F)cc6)nccc5[nH]4)c3n2)c1 [Compound 36, N-(5-(3-(4-(4-Fluorophenyl)-1H-imidazo[4,5-c]pyridin-2-yl)-1H-pyrazolo [4,3-b]pyridin-5-yl)pyridin-3-yl)pivalamide] |  |  | 0%
2.03 µM | > 10 µM | > 10 µM | CCCCC(=O)Nc1cncc(-c2ccc3[nH]nc(-c4nc5c(-c6ccoc6)nccc5[nH]4)c3n2)c1 [Compound 327, N-(5-(3-(4-(Furan-3-yl)-1H-imidazo[4,5-c]pyridin-2-yl)-1H-pyrazolo[4,3-b]pyridin-5-yl)pyridin-3-yl)pentanamide] |  | 10.1% | 22.5%
1.04 µM | > 10 µM | > 10 µM | Cc1ccc(-c2nccc3[nH]c(-c4n[nH]c5ccc(-c6cncc(OC7CCCCC7)c6)nc45)nc23)s1 [Compound 735, 5-(5-(Cyclohexyloxy)pyridin-3-yl)-3-(4-(5-methylthiophen-2-yl)-1H-imidazo[4,5-c]pyridin-2-yl)-1H-pyrazolo[4,3-b]pyridine] |  | 0% | 18.8%
> 10 µM | > 10 µM | > 10 µM | c1cncc(-c2ccc3[nH]nc(-c4nc5cnccc5[nH]4)c3n2)c1 [Compound 256, 3-(1H-Imidazo[4,5-c]pyridin-2-yl)-5-(pyridin-3-yl)-1H-pyrazolo[4,3-b]pyridine] | 21.9% | 1.8% | 35.5%
0.837 µM | 5.88 µM | > 10 µM | Cn1cc(-c2ccc3[nH]nc(-c4nc5c(-c6cc(F)cc(CNS(C)(=O)=O)c6)nccc5[nH]4)c3n2)cn1 [Compound 764, N-(3-Fluoro-5-(2-(5-(1-methyl-1H-pyrazol-4-yl)-1H-pyrazolo [4,3-b]pyridin-3-yl)-1H-imidazo[4,5-c]pyridin-4-yl)benzyl)methanesulfonamide] |  |  | 0%
3.65 µM | 3.91 µM | > 10 µM | c1ccc(CNCc2cncc(-c3ccc4[nH]nc(-c5nc6c(-c7ccsc7)nccc6[nH]5)c4n3)c2)cc1 [Compound 304, N-Benzyl-1-(5-(3-(4-(thiophen-3-yl)-1H-imidazo[4,5-c]pyridin-2-yl)-1H-pyrazolo [4,3-b]pyridin-5-yl)pyridin-3-yl)methanamine] |  |  | 0%
> 10 µM | > 10 µM | > 10 µM | O=C(Nc1cncc(-c2ccc3[nH]nc(-c4nc5c(-c6ccsc6)nccc5[nH]4)c3n2)c1)c1ccccc1 [Compound 291, N-(5-(3-(4-(Thiophen-3-yl)-1H-imidazo[4,5-c]pyridin-2-yl)-1H-pyrazolo [4,3-b]pyridin-5-yl)pyridin-3-yl)benzamide] | 3.3% | 2% | 0%
0.994 µM | 1.98 µM | 2.75 µM | CC(C)Nc1cncc(-c2ccc3[nH]nc(-c4nc5c(-c6cccnc6)nccc5[nH]4)c3n2)c1 [Compound 96, N-Isopropyl-5-(3-(4-(pyridin-3-yl)-1H-imidazo[4,5-c]pyridin-2-yl)-1H-pyrazolo[4,3-b]pyridin-5-yl)pyridin-3-amine] |  |  | 
